Reference: patent US6211244A, “Calcium receptor-active compounds” (priority 1995, dated 2001)
Counter-ions that a name gives are not always drawn.

Legend:
[1] = tested on: Parathyroid Cell Calcium Receptor; assay: EC50 in parathyroid cells or HEK 293/pHuPCaR4.0 cells loaded with fura-2; format: cell-based, calves and humans; conditions: parathyroid cells or HEK 293/pHuPCaR4.0, fura-2; cell type not given per value
Protocol: This section describes procedures used to obtain parathyroid cells from calves and humans, and to use the parathyroid cells to measure calcium receptor activity.
Human parathyroid glands, were obtained from patients undergoing surgical removal of parathyroid tissue for primary or uremic hyperparathyroidism (uremic HPT), and were treated similarly to bovine tissue.
Glands were trimmed of excess fat and connective tissue and then minced with fine scissors into cubes approximately 2-3 mm on a side. Dissociated parathyroid cells were prepared by collagenase digestion and then purified by centrifugation in Percoll buffer.
Primary culture also has the advantage that cells can be labeled with isotopes to near isotopic equilibrium, as is necessary for studies involving measurements of inositol phosphate metabolism.
ITS+ is a premixed solution containing insulin, transferrin, selenium, and bovine serum albumin (BSA)-linolenic acid (Collaborative Research, Bedford, Mass.). The cells were then transferred to plastic flasks (75 or 150 cm^2; Falcon) and incubated overnight at 37° C. in a humid atmosphere of 5% CO2. No serum is added to these overnight cultures, since its presence allows the cells to attach to the plastic, undergo proliferation, and dedifferentiate.
The cells were then pelleted, resuspended in the same buffer, but lacking the ester, and incubated a further 15 minutes at 37° C. The cells were subsequently washed twice with PCB containing 0.5 mM CaCl2 and 0.5% BSA and maintained at room temperature (about 20° C.). Immediately before use, the cells were diluted five-fold with prewarmed 0.5 mM CaCl2 -PCB to obtain a final BSA concentration of 0.1%. The concentration of cells in the cuvette used for fluorescence recording was 1-2×10^6 /ml.
The fluorescence of indicator-loaded cells was measured at 37° C. in a spectrofluorimeter (Biomedical Instrumentation Group, University of Pennsylvania, Philadelphia, Pa.) equipped with a thermostated cuvette holder and magnetic stirrer using excitation and emission wavelengths of 340 and 510 nm, respectively. […] To correct the calibration for dye leakage, cells were placed in the cuvette and stirred at 37° C. for 2-3 minutes. The cell suspension was then removed, the cells pelleted, and the supernatant returned to a clean cuvette. […] This estimate was subtracted from the apparent Fmin.
HEK 293 cells transfected with pHuPCaR4.0 were loaded with fura-2 by incubating the cells in Dulbecco's modified Eagle's media buffered with 20 mM HEPES containing about 5 μM […] for one hour at room temperature. Cell were then rinsed with Hank's balanced salt solution buffered with 20 mM HEPES containing 1 mM CaCl2 and 1 mM MgCl2. Compounds to be tested were then added to the cells and fluorescence was measured (excitation and emission wavelengths of 340 and 510 nm, respectively).

[2] = molecular target: T1, human calcium receptor (Homo sapiens, UniProt P41180, R990G); assay: increases in [Ca^2+ ]i in HEK-293 cells expressing the human calcium receptor (fura-2 loaded HEK 293/pHuPCaR4.0 cells), % activity; format: cell-based
T1 construct: expressed in transfected cells; host or cells: HEK 293
T1 sequence (P41180 20-1078 R990G): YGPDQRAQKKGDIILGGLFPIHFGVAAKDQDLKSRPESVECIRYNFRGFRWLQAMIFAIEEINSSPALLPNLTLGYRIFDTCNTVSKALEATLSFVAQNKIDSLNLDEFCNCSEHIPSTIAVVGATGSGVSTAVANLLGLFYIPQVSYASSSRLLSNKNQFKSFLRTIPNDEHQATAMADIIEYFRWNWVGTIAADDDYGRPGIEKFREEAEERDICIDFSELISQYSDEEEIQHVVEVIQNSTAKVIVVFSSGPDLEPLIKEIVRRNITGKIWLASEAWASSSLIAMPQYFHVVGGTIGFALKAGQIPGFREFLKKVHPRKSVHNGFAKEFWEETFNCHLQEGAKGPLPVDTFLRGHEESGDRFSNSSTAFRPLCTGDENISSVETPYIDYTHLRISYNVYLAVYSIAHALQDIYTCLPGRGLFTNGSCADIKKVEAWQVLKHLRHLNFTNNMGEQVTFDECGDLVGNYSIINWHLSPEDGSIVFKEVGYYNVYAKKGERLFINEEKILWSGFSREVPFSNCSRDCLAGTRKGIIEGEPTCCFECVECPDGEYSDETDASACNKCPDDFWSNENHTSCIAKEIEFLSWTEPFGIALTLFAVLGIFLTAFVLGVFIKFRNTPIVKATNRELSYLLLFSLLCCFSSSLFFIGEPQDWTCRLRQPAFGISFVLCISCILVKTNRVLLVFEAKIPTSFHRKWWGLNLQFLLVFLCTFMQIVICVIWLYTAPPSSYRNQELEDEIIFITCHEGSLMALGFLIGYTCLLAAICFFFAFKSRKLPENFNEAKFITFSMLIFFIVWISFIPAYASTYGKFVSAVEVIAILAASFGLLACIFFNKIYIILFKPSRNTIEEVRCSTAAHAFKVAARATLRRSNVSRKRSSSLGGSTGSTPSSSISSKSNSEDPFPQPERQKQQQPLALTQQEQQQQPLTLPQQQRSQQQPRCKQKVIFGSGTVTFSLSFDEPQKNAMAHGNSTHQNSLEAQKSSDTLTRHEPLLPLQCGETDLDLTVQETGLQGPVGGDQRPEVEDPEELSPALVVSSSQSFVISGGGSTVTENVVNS

Structure (SMILES)	EC50 [1] [nM]	% activity ([2]; 33 ng/mL) [%]	% activity ([2]; 330 ng/mL) [%]	% activity ([2]; 3300 ng/mL) [%]
CC(N[C@H](C)c1ccccc1)c1ccc2ccccc2c1 (stereo partly drawn) [Compound 4H, N-[1-(2-naphthyl)ethyl]-1-phenylethylamine]	≥ 3000	37	77	
COc1cccc([C@@H](C)NCCCc2cccc(F)c2)c1 [Compound 4N]	800	65	100	
C[C@@H](NCc1ccc2ccccc2c1)c1cccc2ccccc12 [Compound 9C]	600	82	104	
CC(C)C(N[C@H](C)c1cccc2ccccc12)c1ccc2ccccc2c1 (stereo partly drawn) [Compound 10F]	890	84	96	
C[C@@H](NCCCc1ccccc1Cl)c1cccc2ccccc12 [Compound 12Z, N-3-(2-chlorophenyl)-1-propyl-(R)-1-(1-naphthyl) ethylamine hydrochloride]	110			
CCCOc1ccc(CN[C@H](C)c2cccc3ccccc23)cc1 [Compound 13Q]	~800	46	95	
C[C@@H](NCc1ccc(C(F)(F)F)cc1)c1cccc2ccccc12 [Compound 13S]	< 130	87	102	
C[C@@H](NCc1ccc2c(c1)OCCO2)c1cccc2ccccc12 [Compound 13X]	< 750	65	102	
COc1ccc([C@H](C)N[C@H](C)c2cccc3ccccc23)cc1 [Compound 14V]	1700			
COc1cccc(C(C)NC(C)c2cccc3ccccc23)c1 (stereo not drawn) [Compound 14Y]	380	73	109	
C[C@@H](NCc1ccc(C(C)(C)C)cc1)c1cccc2ccccc12 [Compound 15G]	~500	80	113	
COc1ccc(CN[C@H](C)c2cccc3ccccc23)cc1C [Compound 16Q]	40	88	110	
COc1ccc(CN[C@H](C)c2cccc3ccccc23)cc1F [Compound 16T]	40	88	97	
Cc1ccc(CN[C@H](C)c2cccc3ccccc23)cc1C [Compound 16V]	< 130	102	114	
CSc1ccc(CN[C@H](C)c2cccc3ccccc23)cc1 [Compound 16X]	100	96	111	
COc1ccc([C@@H](C)N[C@H](C)c2cccc3ccccc23)cc1C.Cl [Compound 17P, (R)-N-(1-(4-Methoxy-3-methylphenyl)ethyl)-(R)-1-(1-naphthyl)ethylamine hydrochloride]	40	86	101	
COc1ccc([C@@H](C)N[C@H](C)c2cccc3ccccc23)cc1Cl [Compound 17X, (R,R)-N-(1-Ethyl-4'-methoxy-3'-chlorophenyl)-1-(1-naphthylethyl) amine]	20	93	105	
COc1cccc([C@@H](C)NC2CCN(Cc3ccccc3)CC2)c1 [Compound 20F]	< 1000			
COc1ccc(CCCN[C@H](C)c2cccc(OC)c2)cc1 [Compound 20I]	> 1000	52	87	

Structure (SMILES)	EC50 [1] [nM]	% activity ([2]; 33 ng/mL) [%]	% activity ([2]; 330 ng/mL) [%]	% activity ([2]; 3300 ng/mL) [%]
COc1cccc([C@@H](C)NCCCc2ccc(OC)c(OC)c2)c1 [Compound 20J]	> 3000	48	80	
CCC(CCc1ccccc1)NC(C)c1cccc(OC)c1 (stereo not drawn) [Compound 20S]	4200			
COc1cccc([C@@H](C)N[C@H](C)CCc2ccccc2)c1 [Compound 21D, (R,R)-N-(4-phenyl-2-butyl)-1-(3-methoxyphenyl)ethylamine]	3000	75	104	
C[C@H](CCc1ccccc1)N[C@H](C)c1cccc2ccccc12 [Compound 21F, (R,R)-N-(4-phenyl-2-butyl)-1-(1-naphthyl)etbylamine]	380	85	109	
C[C@@H](CCc1ccccc1)N[C@H](C)c1cccc2ccccc12 [Compound 21G]	1100	63	88	
C[C@H](CCc1cccc(C(F)(F)F)c1)N[C@@H](C)c1cccc2ccccc12 [Compound 25C, (S,R)-N-[4-(3-trifluoromethylphenyl)-2-butyl]-1-(1-naphthyl)ethylamine]	> 2000			
C[C@H](CCc1cccc(C(F)(F)F)c1)N[C@H](C)c1cccc2ccccc12 [Compound 25D, (R,R)-N-[4-(3-trifluoromethylphenyl)-2-butyl]-1-(1-naphthyl)ethylamine]	19			
COc1cccc([C@@H](C)NCc2ccc3c(c2)OCO3)c1 [Compound 25J]		105	123	119
COc1cccc([C@@H](C)NCc2ccc(OC)c(OC)c2)c1 [Compound 25K]		86	107	124
C[C@@H](NCc1cccc2ccccc12)c1cccc2ccccc12 [Compound 25L]		85	97	97
COc1cccc([C@@H](C)NCC(C)c2ccccc2)c1 (stereo partly drawn) [Compound 25M]		79	100	118
COc1cccc([C@@H](C)NCC(C)c2ccccc2)c1 (stereo partly drawn) [Compound 25N]		46	73	94
COc1cccc([C@@H](C)NCc2ccc3c(c2)OCCO3)c1 [Compound 25O]		96	115	126
COc1cccc([C@@H](C)NC2Cc3ccccc3C2)c1 [Compound 25P]		75	81	90
COc1cccc([C@@H](C)NCCc2ccccc2)c1 [Compound 25Q]		77	95	116
COc1ccc([C@H](C)N[C@H](C)c2cccc3ccccc23)cc1C [Compound 25U]		95	107	107
COc1ccc([C@H](C)N[C@@H](C)c2cccc3ccccc23)cc1C [Compound 25V]		43	59	89
COc1ccc([C@@H](C)N[C@@H](C)c2cccc3ccccc23)cc1C [Compound 25W]		42	69	95
